Test results published in patent publication US9770423B2, “Modulation sAPP, sAAPα and BDNF levels in individuals diagnosed with FXS and ASD” (Indiana University Research and Technology Corp., priority 2012, dated 2017).
Where “and” joins values, the source holds several entries; their conditions need not be identical. Identical values can stand only once. Entries after “also recorded” stand apart in the source; their conditions may differ.

Experiments:
Assay type in all cases: in vivo, human
[1] = safety and adverse effects in the 12-week trial in youth with autistic disorder; conditions: nine youth with autistic disorder receiving acamprosate
Description: A 12-week single-blind, placebo-controlled trial of the effect of acamprosate in the treatment of 12 youths with autistic disorder aged 5 to 17 years was carried out. In order to pilot test use of acamprosate in youth with autism targeting core social impairment, was conducted. All subjects and their family members were blinded to treatment status. All subjects participated in a 2 week placebo-lead-in phase prior to 10 weeks of treatment with acamprosate. For this project, enteric coated commercially available 333 mg acamprosate pills were over-encapsulated and identical matching placebo manufactured for the project. Placebo-responders, defined by a Clinical Global Impressions Improvement scale (CGI-I) score of 1 “very much improved” or 2 “much improved” (ratings anchored to core social deficits) at week 2 were asked to exit the study. During active treatment with acamprosate, dosing was increased in 333 mg increments per week over the first six weeks of active treatment to a maximum dose of 1,332 mg/day (weight<5 60 kg) or 1,998 mg/day (weight>60 kg). During the final four weeks of active drug treatment, subjects were maintained on a stable highest tolerated (optimal) dose. The primary outcome measure was the clinician-rated CGI-I anchored to symptoms of social impairment. […]

[2] = test system: sAPPα; experiment: plasma sAPPα by ELISA pre- and post-acamprosate
Description: Test plasma samples are measured soon after collection. When necessary test samples of plasma were frozen but not subjected to repeated freeze/thaw cycles. The test samples were thawed just before use at a low temperature and mixed them completely. If necessary, the plasma samples can be diluted appropriately with the EIA buffer, and assay may be performed in duplicate measurements for the test samples and standards. Test samples in neutral pH range were used, and steps were taken to avoid the contamination with of organic solvents. Regarding the standard to quantify the sAPPα levels, a series of sAPPα standards in EIA buffer by serial dilutions, from 0.78 ng/mL to 50 ng/mL were prepared.
The ELISA plates were pre-coated with anti-human sAPPα(2B3) mouse IgG-monoclonal affinity purified (IBL). First, the wells for the reagent blank were determined, and 100 μL each of “EIA buffer” or 10 mM NaHCO3 (pH9.5) buffer was placed into each of the wells. Likewise, wells were assigned for test sample blanks, test samples and diluted standards. Next, 100 μL each of test sample blank, test sample and dilutions of standard was added to into the appropriate wells. The test sample included the plasma sample from each subject, which may vary from 5-25 μl, made up to 100 μL with the EIA buffer. The pre-coated plate was incubated overnight at 4° C. after covering it tightly with a plate lid. The plate was kept onto a rocker with gentle shaking Next day, each well of the pre-coated plate was vigorously washed with wash buffer containing 0.05% Tween 20 in phosphate buffer. This was done by filling each well with the wash buffer, leaving the pre-coated plate laid for 15-30 seconds and removing wash buffer completely from the plate by snapping. This procedure was repeated five times. After removing the remaining liquid from all wells completely by snapping the plate onto paper towel, 100 μL of labeled antibody solution was added into the wells of test samples, diluted standard and test sample blank. HRP-conjugated and labeled anti-Human APP (R101A4) mouse IgG from IBL was used. Each plate was incubated for 30 minutes at 4° C. after covering it with plate lid, and then washed the plate 5 times in the same manner as described before. To develop the color, 100 μL of the Chromogen (TMB solution) was added to into the wells, and the plate was incubated for 30 minutes at room temperature in the dark. When the liquid started turning blue (by addition of the Chromogen), 100 μL of the Stop solution (1N H2SO4) was added into the wells. The liquid was mixed by tapping the side of plate, and the liquid turned yellow by addition of the Stop solution. […] A plate reader was used and measurements were conducted measurement at 450 nm against a reagent blank. […]

[3] = test system: BDNF; experiment: plasma BDNF by ELISA in the FXS open-label trial
Description: Blood samples for BDNF were drawn at Screen and at Week 10 of the study. BDNF analysis was done blind to patient assignment (pre- or post-treatment). Approximately 4 ml of blood was collected in EDTA containing tubes. Within 30 minutes of collection, the blood was centrifuged at 1000 g at 2-8° C. for 15 minutes. Plasma was collected and an additional centrifugation of the collected plasma at 1000 g at 2-8° C. for 10 minutes was done to completely remove platelets from the samples. All plasma samples were stored at −80° C. BDNF assays were done at the same time with all samples in triplicate. To determine plasma BDNF, a sensitive ELISA based method was used using human BDNF ELISA kit from R&D systems (Minneapolis, Minn.; USA) that is validated for detection of BDNF present in human plasma (Grassi-Oliveira et al., 2008). The amount (pg/ml) of BDNF present in the plasma samples was determined from the pg value obtained in the standard curve using a known amount of pure human BDNF, which was run at the same time with subjects' samples.
All data were recorded in IBM SPSS Statistics Professional for statistical analysis. Potential differences in pre- and post-treatment mean values of all outcome measures employed were calculated using paired t-tests. […] Effect sizes were calculated by taking the mean change from baseline to endpoint divided by the standard deviation at baseline.

CC(=O)NCCCS(=O)(=O)O.[Ca] [acamprosate, Calcium Acetylhomotaurine]
overall tolerability [1]: well tolerated with no adverse effects leading to drug discontinuation or laboratory/vital sign abnormalities noted; also recorded: well tolerated with no adverse effects leading to drug discontinuation and no vital sign or safety laboratory changes noted
fractional change in sAPPα-CP ([2]; individual patients 1-6, baseline to Week 12): −0.7108 and −0.3184 and 0 and −0.02825 and −0.5967 and −0.4596
sAPPα-CP, Week 12 ([2]; individual patients 1-6, titled as diagnosed with FXS, after treatment): 2.486 ng/mL and 5.056 ng/mL and 2.764 ng/mL and 4.778 ng/mL and 7.417 ng/mL and 2.694 ng/mL
mean sAPPα post-treatment ([2]; pooled 15 participants (9 FXS, 6 idiopathic ASD), pre-treatment 8.4±7.9 ng/mL, p=0.003): 5.5 ± 7.2 ng/mL
mean sAPPα levels at endpoint ([2]; six subjects of the 12-week trial, baseline 7.8 ng/mL, p=0.03): 4.2 ng/mL
change in plasma BDNF from screen to Week 10 ([3]; 10 subjects with FXS): All subjects experienced an increase
mean subject plasma BDNF after treatment ([3]; Week 10, 10 subjects with FXS, screen 790.4±1350.4 pg/mL, p=0.01): 1007.6 ± 1493.2 pg/mL
